Article PMC12117050 (Scientific Reports, 2025)

Experiments:
CYP3A [1] = details: cited from earlier work
CYP3A4 = details: cited from earlier work
CYP3A [2] = details: by inhibiting CYP3A activity; cited from earlier work
[3] = Midazolam pharmacokinetics in rats after 7-day MFE or water pre-treatment; details: rat
[4] = Sprague Dawley, plasma, po, 15 mg/kg

O=C(O[C@@H]1Cc2c(O)cc(O)cc2O[C@@H]1c1cc(O)c(O)c(O)c1)c1cc(O)c(O)c(O)c1 [EGCG, epigallocatechin gallate]
Inhibition of CYP3A activity in human liver microsomes (CYP3A [1]): moderately inhibits
Inhibition of CYP3A4 activity (CYP3A4): irreversibly inhibits
Effect on pharmacokinetics of nicardipine in rats (CYP3A [2]): alters the pharmacokinetics of nicardipine

Cc1ncc2n1-c1ccc(Cl)cc1C(c1ccccc1F)=NC2 [Midazolam]
Tmax ([3]; Sprague Dawley, plasma, po): 15 min
Cmax [3, 4]: 708 ± 91 ng/mL
Tmax [3, 4]: 30 min
Cmax ([3]; midazolam 15 mg/kg oral, control (water pre-treatment 7 days)): 919 ± 70 ng/mL
AUC0−∞ higher in MFE pre-treatment group compared to control group ([3]; midazolam 15 mg/kg oral, no significant difference): 12%
